According to PMC8878317, “Chemogenomics identifies acetyl-coenzyme A synthetase as a target for malaria treatment and prevention” (Cell Chemical Biology, 2022):
Read-outs that look alike come from different tables or passages of the source.

Legend:
Assay type in all cases: cell-based
[1] = tested on: P. falciparum 3D7 parasites; assay: Metabolomic profiling of compound-treated parasites (LC/MS); design: Metabolite data: dTMP / Metabolite data: GMP / Metabolite data: S-Adenosyl-L-Homocysteine / Metabolite data: 1_3-Bisphosphoglyceric acid: scale not given here;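 on Metabolite data: 3-Phosphoglycerate: Log2 fold change in abundance versus untreated parasite controls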;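 on Metabolite data: Myo-Inositol: Log2 fold change in abundance versus untreated parasite controls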;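 on Metabolite data: N-Carbamoyl-L-Aspartate: Log2 fold change in abundance versus untreated parasite controls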;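 on Metabolite data: Nicotinate: Log2 fold change in abundance versus untreated parasite controls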
How it was run: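 Magnetically purified trophozoites (1×10^8 parasites/mL) recovered 1 h in RPMI 1640, incubated a further 2.5 h, quenched in 90% methanol with labeled aspartate. Extracts analysed by reverse-phase C18 LC with negative-mode Orbitrap MS; peak areas normalized to internal standards, blank-subtracted and averaged by condition.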

[2] = tested on: histone acetylation in P. falciparum 3D7-A10; assay: Histone acetylation Western blot, wild-type 3D7-A10; details: trophozoites, 3 h exposure
Method: (§1) Synchronous trophozoite-stage (24-32hr post-invasion) cultures at 3–5% parasitemia and 2% hematocrit in complete medium were exposed to test compounds for 3 hr at 37°C. […] DMSO was tested at 0.1% as the vehicle-only control. Following drug exposure, parasites were isolated via saponin lysis ice-cold 0.1% saponin in phosphate-buffered saline (PBS). Isolated parasites were washed 3x in ice-cold PBS containing protease inhibitor cocktail (cOmplete mini, Roche) and lysed in 1x Laemmli Sample Buffer (Biorad) with 5% beta-mercaptoethanol (Sigma-Aldrich). Samples were heated at 99°C for 10 min before centrifugation. Equal quantities of solute were separated on Protean TGX Precast Gels (4–20% gradient) in Tris-SDS-glycine buffer, transferred to nitrocellulose membrane by iblot (Invitrogen), and blocked for 1h in tris-buffered saline (TBS) with 5% skim milk powder. Blocked membranes were probed with antibodies recognising tetra-acetylated H4 (H4ac4, Sigma-Aldrich 06–866), H4K8ac (CST #2594), H3K9ac (CST #9649) or H3 (CST #4499), at 1:1000 dilution, and PfBiP ([Shonhai et al., 2007]) (at 1:5000 dilution) in 3% milk powder TBS with 0.1% Tween 20 at 4°C overnight and with 800CW goat α-rabbit IgG (Licor) at 1:10,000 dilution. Membranes were visualised using a Licor Odyssey CLX imaging system and quantified using ImageJ.

[3] = tested on: histone acetylation in P. falciparum Dd2 parent; assay: Histone acetylation Western blot, Dd2 parent; details: trophozoites, 3 h exposure
Method: as §1

[4] = tested on: P. falciparum MMV084978-resistant clones (Dd2-B2 derived); assay: Dose-response assay of MMV084978-selected resistant clones; details: Plasmodium falciparum
Method: Ring-stage parasites were cultured for 72 hr at 1% hematocrit and 1% starting parasitemia in 384-well black clear-bottom plates containing test compounds plated in triplicate in 12-point serial dilutions. […] Alternatively, Dd2-B2 ring-stage cultures at 0.3% parasitemia and 1% hematocrit were exposed for 72 hr to a range of ten drug concentrations that were 2-fold serially diluted in duplicates along with drug-free controls. Parasite survival was assessed by flow cytometry on an Accuri C6 (BD Biosciences) using SYBR Green and MitoTracker Deep Red FM (Life Technologies) as nucleic acid stain and vital dyes respectively. EC50 values were calculated using a nonlinear regression curve fit in Prism Software version 8 (GraphPad).
Bulk cultures were tested for reduced drug susceptibility and individual clones were isolated by limiting dilution.

In the case of `O=C1C(O)=C([C@H]2CC[C@H](c3ccc(Cl)cc3)CC2)C(=O)c2ccccc21` [Atovaquone, reference compound], the “Metabolite data: 1_3-Bisphosphoglyceric acid” value [1] is reported as 0, the “Metabolite data: 2_3-Diphosphoglyceric acid” value [1] is reported as -0.24 and the “Metabolite data: 3-Phosphoglycerate” value [1] is reported as 0. The “Metabolite data: 4-Aminobutyrate” value [1] was 0.16, the “Metabolite data: 4-Phosphopantothenate” value [1] was -0.34 and the “Metabolite data: 4-phosphopantetheine” value [1] was 0. For the same molecule, the “Metabolite data: 5-aminopentanoic acid” value [1] was 0, the “Metabolite data: 5-phosphoribosyl-1-pyrophosphate” value [1] was 0 and the “Metabolite data: 6-Phospho-D-Gluconate” value [1] was 0.06. For the same molecule, the “Metabolite data: ADP-D-Glucose” value [1] was 0.04, the “Metabolite data: Acetyl-CoA” value [1] was -0.68 and the “Metabolite data: Acetyllysine” value [1] was -0.01. For the same molecule, the “Metabolite data: Aconitate” value [1] was 0.31, the “Metabolite data: CDP” value [1] was -0.84 and the “Metabolite data: CDP-Ethanolamine” value [1] was -0.15. The “Metabolite data: CDP-choline” value [1] was 0, the “Metabolite data: CMP” value [1] was -0.8 and the “Metabolite data: CTP” value [1] was -0.85. The “Metabolite data: Citrate/Isocitrate” value [1] was -0.17, the “Metabolite data: Cyclic-AMP” value [1] was 0.13 and the “Metabolite data: Dihydroorotate” value [1] was 4.84. The “Metabolite data: FAD” value [1] was 0.09, the “Metabolite data: FMN” value [1] was -1.11 and the “Metabolite data: Fructose-1,6-Bisphosphate” value [1] was 0.15. For the same molecule, the “Metabolite data: Fumarate” value [1] was 0.18, the “Metabolite data: GDP” value [1] was -0.12 and the “Metabolite data: GMP” value [1] was 0.4. For the same molecule, the “Metabolite data: GTP” value [1] was 0.09, the “Metabolite data: Glucose-1/6-Phosphate” value [1] was -0.03 and the “Metabolite data: Glutathione Disulfide” value [1] was 0.11. For the same molecule, the “Metabolite data: Hexose” value [1] was 0, the “Metabolite data: Hydroxyisocaproic acid” value [1] was 0 and the “Metabolite data: Indole” value [1] was 0.06. The “Metabolite data: Ketoleucine” value [1] was 0, the “Metabolite data: L-arginino-succinate” value [1] was 0 and the “Metabolite data: Lactate” value [1] was 0.09. The “Metabolite data: Malate” value [1] was 0.05, the “Metabolite data: Myo-Inositol” value [1] was -0.06 and the “Metabolite data: N-Acetyl-Glutamate” value [1] was 0.13. The “Metabolite data: N-Acetyl-L-Alanine” value [1] was 0.22, the “Metabolite data: N-Acetyl-L-Ornithine” value [1] was -0.16 and the “Metabolite data: N-Carbamoyl-L-Aspartate” value [1] was 4.58. The “Metabolite data: NAD+” value [1] was 0.08, the “Metabolite data: NADH” value [1] was 1.7 and the “Metabolite data: NADP+” value [1] was -0.1. For the same molecule, the “Metabolite data: NADPH” value [1] was 0.32, the “Metabolite data: Nicotinate” value [1] was -0.09 and the “Metabolite data: Octulose 8/1-Phosphate” value [1] was -0.01. The “Metabolite data: Orotate” value [1] was 0.81, the “Metabolite data: PD” value [1] was 0 and the “Metabolite data: PE” value [1] was 0. The “Metabolite data: PEEK” value [1] was 0, the “Metabolite data: Phenol Red” value [1] was 0 and the “Metabolite data: Pyroglutamic acid” value [1] was 0.06. The “Metabolite data: S-Adenosyl-L-Homocysteine” value [1] was 0.32, the “Metabolite data: S-methyl-5'-thioadenosine” value [1] was -0.26 and the “Metabolite data: SD” value [1] was 0. The “Metabolite data: Sedoheptulose Bisphosphate” value [1] was 0.01, the “Metabolite data: UDP” value [1] was -1.17 and the “Metabolite data: UDP-D-Glucose” value [1] was -0.06. The “Metabolite data: UDP-D-Glucuronate” value [1] was -0.13, the “Metabolite data: UDP-N-Acetyl-Glucosamine” value [1] was -0.25 and the “Metabolite data: UMP” value [1] was -0.68. For the same molecule, the “Metabolite data: UTP” value [1] was -1.12, the “Metabolite data: a-ketoglutarate” value [1] was -0.04 and the “Metabolite data: acetyl-aspartate” value [1] was 0. The “Metabolite data: arginine” value [1] was 0, the “Metabolite data: asparagine” value [1] was 0 and the “Metabolite data: aspartate” value [1] was 0. The “Metabolite data: biotin” value [1] was 0, the “Metabolite data: chlorpropamide” value [1] was 0 and the “Metabolite data: coenzyme A” value [1] was 0. The “Metabolite data: dAMP” value [1] was -0.09, the “Metabolite data: dATP” value [1] was 0.28 and the “Metabolite data: dCDP” value [1] was -0.01. For the same molecule, the “Metabolite data: dCMP” value [1] was -0.39, the “Metabolite data: dCTP” value [1] was -0.38 and the “Metabolite data: dGDP/ADP” value [1] was 0. The “Metabolite data: dGMP/AMP” value [1] was -0.1, the “Metabolite data: dGTP/ATP” value [1] was 0 and the “Metabolite data: dTDP” value [1] was -0.95. For the same molecule, the “Metabolite data: dTMP” value [1] was -0.81, the “Metabolite data: dTTP” value [1] was -0.98 and the “Metabolite data: folate” value [1] was 0. For the same molecule, the “Metabolite data: glucono-lactone” value [1] was 0, the “Metabolite data: glutamate” value [1] was 0 and the “Metabolite data: glutamine” value [1] was 0. For the same molecule, the “Metabolite data: glutathione” value [1] was 0, the “Metabolite data: histidine” value [1] was 0 and the “Metabolite data: hydroxyproline/Aminolevulinate” value [1] was 0. For the same molecule, the “Metabolite data: isoleucine” value [1] was 0, the “Metabolite data: leucine” value [1] was 0 and the “Metabolite data: maleic acid” value [1] was 0. For the same molecule, the “Metabolite data: methionine” value [1] was 0, the “Metabolite data: nicotinamide mononucleotide” value [1] was 0 and the “Metabolite data: orotidine-5'-phosphate” value [1] was 0. The “acetylation of H4K8ac, H3K9ac and tetra-acetylated H4 (H4Ac4) histone markers relative to DMSO” value [2] was “no effect”.

With `CCN(CC)S(=O)(=O)c1ccc(Cl)c(C(=O)Nc2ccc3nc(C)sc3c2)c1` [MMV019721] the “histone acetylation in Dd2 parent” value [3] was “dose-dependent reduction”.

For `O=C(NNC(=O)c1csnn1)c1ccc(Cl)cc1` [MMV084978], the EC50 ([4]; DD2, read-out: MMV084978 mean EC50 (nM) ± SD (n), selection 1, Dd2-B2, clone A7, AcAS:A597V) was > 9600 nM, the EC50 ([4]; DD2, read-out: MMV084978 mean EC50 (nM) ± SD (n), selection 1, Dd2-B2, clone C11, sequencing not determined) was 2500 ± 42 nM and the EC50 ([4]; DD2, read-out: MMV084978 mean EC50 (nM) ± SD (n), selection 1, Dd2-B2, clone E5, sequencing not determined) was 2600 ± 47 nM. It also gave an EC50 ([4]; DD2, read-out: MMV084978 mean EC50 (nM) ± SD (n), selection 1, Dd2-B2, clone F1, sequencing not determined) of 2800 ± 260 nM, an EC50 ([4]; DD2, read-out: MMV084978 mean EC50 (nM) ± SD (n), selection 1, Dd2-B2, clone F9, sequencing not determined) of 2100 ± 53 nM and an EC50 ([4]; DD2, read-out: MMV084978 mean EC50 (nM) ± SD (n), selection 1, Dd2-B2, clone G8, AcAS:A652S) of 2500 ± 24 nM. It also gave an EC50 ([4]; DD2, read-out: MMV084978 mean EC50 (nM) ± SD (n), selection 2, Dd2-B2, clone B8, sequencing not determined) of 2400 ± 33 nM, an EC50 ([4]; DD2, read-out: MMV084978 mean EC50 (nM) ± SD (n), selection 2, Dd2-B2, clone C4, sequencing not determined) of 2400 ± 1.7 nM and an EC50 ([4]; DD2, read-out: MMV084978 mean EC50 (nM) ± SD (n), selection 2, Dd2-B2, clone E9, AcAS:A652S) of 2600 ± 76 nM. For the same molecule, the EC50 ([4]; DD2, read-out: MMV084978 mean EC50 (nM) ± SD (n), selection 2, Dd2-B2, clone F8, sequencing not determined) was 2600 ± 7 nM and the EC50 ([4]; DD2, read-out: MMV084978 mean EC50 (nM) ± SD (n), selection 2, Dd2-B2, clone H12, AcAS:Y607C) was 970 ± 41 nM.
